Laboratory results published in publication PMC12040169 (PLOS Biology, 2025).

Test: in vitro
Details: human, hela cells, % viability

Compound | viability at 28.5 h, 10 µM [%]
O=C(Nc1ccccc1N1CCCNCC1)c1ccnc2ccccc12 [CBK036325T] | 83.4
CCOc1ccsc1C(=O)Nc1cc2ccccc2c(N2CCNCC2)n1 [CBK036341T] | 99.3
CCOc1ccsc1C(=O)Nc1ccccc1N1CCCNCC1 [CBK036354T] | 95.7
O=C(NCc1ccc(OC2CCNCC2)cc1)c1cnccn1 [CBK036359T] | 104
Cn1cccc1C(=O)NCc1ccc(OC2CCNCC2)cc1 [CBK036360T] | 93
COc1ccc(C(=O)Nc2cncc(OC3CCNCC3)n2)cc1 [CBK036370T] | 94.4
N#Cc1ccc(C(=O)Nc2cncc(OC3CCNCC3)n2)cc1 [CBK036371T] | 90.6
Cc1cc(C)cc(S(=O)(=O)c2ccc3ccnc(N4CCCNCC4)c3c2)c1 [CBK036413C] | 87.1
O=S(=O)(c1ccc(Cl)cc1)c1ccc2ccnc(N3CCCNCC3)c2c1 [CBK036416C] | 82.9
COc1ccc([C@@]23CC[C@@H](NC(=O)Nc4cccc(C#N)c4)C[C@@H]2N(C)CC3)cc1OC [CBK036448T] | 103
COc1ccc([C@@]23CC[C@@H](NC(=O)Nc4ccc(OC(F)(F)F)cc4)C[C@@H]2N(C)CC3)cc1OC [CBK036455T] | 82.2
COc1ccc([C@@]23CC[C@@H](NC(=O)Nc4ccc(F)cc4)C[C@@H]2N(C)CC3)cc1OC [CBK036458T] | 93.5
COc1ccc([C@@]23CC[C@@H](NC(=O)Nc4cccc(SC)c4)C[C@@H]2N(C)CC3)cc1OC [CBK036459T] | 91.1
COc1ccc(NC(=O)N[C@@H]2CC[C@@]3(c4ccc(OC)c(OC)c4)CCN(C)[C@H]3C2)c(C)c1 [CBK036460T] | 97.2
COc1ccc([C@@]23CC[C@@H](NC(=O)Nc4ccc(C(C)(C)C)cc4)C[C@@H]2N(C)CC3)cc1OC [CBK036469T] | 92
COc1ccc([C@@]23CC[C@@H](NC(=O)Nc4cc(C)c(C)cc4[N+](=O)[O-])C[C@@H]2N(C)CC3)cc1OC [CBK036478T] | 67.8
O=S(=O)(c1ccc(Cl)c(Cl)c1)c1ccc2nccc(N3CCNCC3)c2c1 [CBK036497C] | 84.8
COc1ccc([C@@]23CC[C@@H](NC(=O)Nc4cc(C)ccc4F)C[C@@H]2N(C)CC3)cc1OC [CBK036509T] | 102
COc1cc(C)c(NC(=O)c2cnc(-c3ccc(F)cc3)c(-c3ccncc3)c2)cc1OC [CBK036575] | 97.5
OCCNc1nccnc1-c1ccoc1 [CBK036580] | 106
CN(C)C(=O)c1cccc(-c2nccnc2NCCO)c1 [CBK036582] | 90.3

Compound | viability at 28.5 h, 10 µM [%]
CN(C)CCN1CCN(c2nc(-c3ccc4[nH]ccc4c3)cn3ccnc23)CC1 [CBK036587] | 102
CC(=O)Nc1cccc(-c2nccnc2N2CCCCC2CCO)c1 (stereo not drawn) [CBK036591] | 101
c1csc(CNc2nccnc2-c2ccoc2)c1 [CBK036599] | 107
c1csc(CNc2nccnc2-c2cccs2)c1 [CBK036602] | 92.6
CC(=O)Nc1cccc(-c2cn3ccnc3c(N[C@@H](CO)C(C)C)n2)c1 [CBK036605] | 106
CCC(CO)Nc1nccnc1-c1ccsc1 (stereo not drawn) [CBK036606] | 107
CCC(CO)Nc1nccnc1-c1ccc(CO)cc1 (stereo not drawn) [CBK036607] | 93
COc1cc(Nc2nc(-c3cccc4ccccc34)cn3ccnc23)cc(OC)c1OC [CBK036608] | 96.1
OCCN(CCO)c1nccnc1-c1ccccc1F [CBK036610] | 106
CN1CCN(c2nccnc2-c2cccnc2)CC1 [CBK036612] | 89.8
CC(=O)c1ccc(-c2cc(C(=O)NCCc3cccnc3)cnc2-c2ccc(F)cc2)s1 [CBK036614] | 102
Clc1cccc(CNc2nccnc2-c2ccoc2)c1 [CBK036616] | 105
c1coc(CNc2nccnc2-c2cccs2)c1 [CBK036618] | 85.5
COc1ccc(-c2cc(C(=O)Nc3ccc(OC(F)(F)F)cc3)cnc2-c2ccccc2)cn1 [CBK036621] | 79.2
CC(=O)c1ccc(-c2cc(C(=O)Nc3ccc4c(c3)OCCO4)cnc2-c2ccc(Cl)cc2)s1 [CBK036627] | 105
c1cnc(-c2ccoc2)c(NCCCN2CCOCC2)n1 [CBK036631] | 95.3
COc1ccc(-c2cc(C(=O)N[C@@H](C)c3ccccc3)cnc2-c2cccc(C)c2)cc1 [CBK036635] | 105
COc1ccc(-c2cc(C(=O)N3CCN(C(C)=O)CC3)cnc2-c2ccccc2)cn1 [CBK036637] | 101
COc1ncc(-c2nccnc2N2CCCC2CO)c(OC)n1 (stereo not drawn) [CBK036638] | 92.8
CC(C)[C@@H](CO)Nc1nccnc1-c1ccc(CN)cc1 [CBK036640] | 104
NC(=O)c1ccc(-c2nccnc2NCCc2ccncc2)cc1 [CBK036644] | 97.1

Compound | viability at 28.5 h, 10 µM [%]
CC(=O)NCCNC(=O)c1cnc(-c2ccc(Cl)cc2)c(-c2ccc(O)cc2)c1 [CBK036647] | 101
COc1ccc(-c2cc(C(=O)NCCc3c[nH]c4ccccc34)cnc2-c2ccc(F)cc2)cn1 [CBK036649] | 95.2
CN(C)C(=O)c1cccc(-c2nccnc2NCc2cccc([N+](=O)[O-])c2)c1 [CBK036651] | 94.3
Cc1cccc(-c2ncc(NC(=O)c3cccc(N(C)C)c3)nc2-c2ccco2)c1 [CBK036654] | 103
CC(C)[C@H](CO)NC(=O)c1cnc(-c2ccc(Cl)cc2)c(-c2ccco2)c1 [CBK036658] | 108
CC(=O)Nc1ccc(NC(=O)c2cnc(-c3cccc(C)c3)c(-c3ccncc3)c2)cc1C(F)(F)F [CBK036660] | 49.6
CS(=O)(=O)CCNC(=O)c1cnc(-c2cccc(C(F)(F)F)c2)c(-c2ccncc2)c1 [CBK036661] | 105
COc1ccc(-c2cc(C(=O)NCCc3cccc(C(F)(F)F)c3)cnc2-c2ccccc2)cn1 [CBK036662] | 99.9
COc1ccc(-c2cc(C(=O)NCCc3c[nH]cn3)cnc2-c2ccc(F)cc2)cn1 [CBK036675] | 112
O=C(c1cnc(-c2ccccc2)c(-c2cccnc2)c1)N1CCC(S(=O)(=O)c2ccccc2)C1 (stereo not drawn) [CBK036685] | 103
Nc1ccc(-c2nc(NC(=O)Cc3ccccc3)cnc2-c2ccc(F)c(Cl)c2)cc1 [CBK036690] | 89.5
CC(C)[C@H](CO)NC(=O)c1cnc(-c2ccccc2)c(-c2ccncc2)c1 [CBK036691] | 115
COc1ccc(-c2cc(C(=O)NCC(F)(F)F)cnc2-c2ccc(Cl)cc2)cn1 [CBK036698] | 103
COc1ccc(-c2cc(C(=O)NCc3ccc(F)cc3)cnc2-c2cccc(C)c2)cc1 [CBK036702] | 98.8
COc1ccc(C(C)C)cc1-c1nccnc1NC1CCC(N)CC1 (stereo not drawn) [CBK036703] | 108
COc1ccc(-c2cc(C(=O)N3CCC(S(C)(=O)=O)C3)cnc2-c2ccccc2)cn1 (stereo not drawn) [CBK036706] | 99.7
O=C(O)c1cccc(NC(=O)c2cnc(-c3ccccc3)c(-c3ccco3)c2)c1 [CBK036710] | 93.4
COc1ccc(C(C)C)cc1-c1nccnc1N[C@@H](CO)C(C)C [CBK036711] | 109
O=C(Nc1cnc(-c2cccc(C(F)(F)F)c2)c(-c2ccco2)n1)c1cccnc1 [CBK036714] | 95.3
CC(=O)N1CCC(C(=O)Nc2cnc(-c3ccc(F)c(Cl)c3)c(-c3cccnc3)n2)CC1 [CBK036719] | 108
CC(=O)c1ccc(OCC(=O)Nc2cnc(-c3cccc(C)c3)c(-c3ccc(N)cc3)n2)cc1 [CBK036722] | 107

Compound | viability at 28.5 h, 10 µM [%]
Cc1noc(C)c1C(=O)Nc1cnc(-c2cccc(C(F)(F)F)c2)c(-c2cccnc2)n1 [CBK036727] | 96.8
COc1ccc(-c2cc(C(=O)NCc3ccc(N)cc3)cnc2-c2cccc(C)c2)cc1 [CBK036728] | 106
COc1ccc(-c2cc(C(=O)NCCc3ccccn3)cnc2-c2cccc(C)c2)cc1 [CBK036730] | 93.7
C[C@@H](Nc1nccnc1-c1cccc(F)c1)c1ccccc1 [CBK036733] | 98.3
CC(C)(CO)CNC(=O)c1cnc(-c2ccccc2)c(-c2ccncc2)c1 [CBK036734] | 111
c1ccc2c(CCNc3nccnc3-c3ccoc3)c[nH]c2c1 [CBK036743] | 102
Cc1cccc(-c2ncc(NC(=O)CC3OC(=O)c4ccccc43)nc2-c2ccc(N)cc2)c1 (stereo not drawn) [CBK036749] | 91.5
CC(NC(=O)c1cnc(-c2ccc(Cl)cc2)c(-c2ccc(O)cc2)c1)c1ccc(F)cc1 (stereo not drawn) [CBK036751] | 89.9
COC1CCC(C(=O)Nc2cnc(-c3cccc(OC(F)(F)F)c3)c(-c3cccnc3)n2)CC1 (stereo not drawn) [CBK036754] | 97.4
COc1ccccc1-c1nccnc1NCc1ccc(OC(F)(F)F)cc1 [CBK036761] | 96
Fc1cccc(-c2nccnc2NCCc2ccncc2)c1 [CBK036763] | 95.8
CCC(CO)Nc1nccnc1-c1cccc(F)c1 (stereo not drawn) [CBK036775] | 108
COc1cccc(CNc2nccnc2-c2ccoc2)c1OC [CBK036782] | 105
Nc1cccc(-c2nccnc2N2CCCC2CO)c1 (stereo not drawn) [CBK036786] | 102
CN(C)CCN1CCN(c2ccc(-c3ccc(OC(F)(F)F)cc3)cn2)CC1 [CBK036796] | 94.7
COc1ccc(Nc2ccc(-c3ccc4c(c3)OCO4)cn2)c(C)c1 [CBK036799] | 102
CCC(CO)Nc1nccnc1-c1cccs1 (stereo not drawn) [CBK036800] | 98.3
CO[C@@H](C(=O)Nc1cnc(-c2ccc(F)cc2)c(-c2ccsc2)n1)c1ccccc1 [CBK036803] | 98.4
FC(F)(F)Oc1ccc(CNc2nccnc2-c2cccs2)cc1 [CBK036806] | 100
O=C(CCc1cccnc1)Nc1cnc(-c2cccc(OC(F)(F)F)c2)c(-c2cccnc2)n1 [CBK036811] | 94.5
O=C(c1ccc(-c2nccnc2NCC2CC2)cc1)N1CCOCC1 [CBK036814] | 88.8
